# Test results from US8309073B2, “Combination of probiotics” (Valio Ltd., priority 2001, dated 2012).
# “Also recorded” adds a separate entry of the source.
# Key:
# [1] = Viability in pH-adjusted MRS broths; assay type: physicochemical; details: for Cell content pH 2: MRS broth adjusted with lactic acid to pH 2, 37° C.; for Cell content pH 2 / Cell content pH 3 / Cell content pH 4: 3 hours; for Cell content pH 3: MRS broth adjusted with lactic acid to pH 3, 37° C.; for Cell content pH 4: MRS broth adjusted with lactic acid to pH 4, 37° C.; for Initial content: before cultivation in pH-adjusted MRS broth
# Method: The strains were tested at different pH values in MRS broths the pH of which had been adjusted with lactic acid to values pH 4, pH 3 and pH 2. The strain to be studied (fresh culture) was inoculated into a pH broth of 1% and grown at 37° C. for 3 hours, after which the content of live cells was determined using an agar suitable for the strain (see Table 5). The strains maintained their viability in the 3-hour process in a pH value of 3 excellently. […] In the test the bacteria were not protected by components carried by food (such as fat) and therefore they may be assumed to preserve even better when consumed in vivo together with food.
# intestinal mucus [2] = experiment: Adhesion of the probiotic strains to intestinal mucus; assay type: binding; details: for Adhesion % (+Std.): adhesion to intestinal mucus
# Method: Adhesion of the probiotic strains to mucus was tested in accordance with Ouweland et al. (Ouwehand, A. C., Kirjavainen, P. V., Grönlund, M. -M., Isolauri, E., and Salminen, S. J. 1999. Adhesion of probiotic micro-organisms to intestinal mucus. Int. Dairy J. 9:623-630). LGG and probionic bacterium PJS adhered excellently to the intestinal mucus, Bbi99 moderately and LC705 weakly. Adhesion is a prerequisite for the microbe to produce beneficial effects in the intestines. On the other hand, LC705 is known to adhere well to epithet cells, similarly as LGG (Lehto, E. and Salminen S. 1997. Adhesion of two lactobacillus strains, one lactococcus strain and one propionibacterium strain to cultured human intestinal CaCO-2 cell lines. Bioscience Microflora 16: 13-17). This property is beneficial when there is an imbalance in the intestine and the protective mucus has been weakened.
# [3] = Bile salt tolerance in MRS broths with Oxgal bile salt; assay type: physicochemical; details: for Cell content Bile salt 0.3%: MRS broth with 0.3% Oxgal bile salt; for Cell content Bile salt 0.3% / Cell content Bile salt 0.5%: 3 hours, 37° C.; for Cell content Bile salt 0.5%: MRS broth with 0.5% Oxgal bile salt; for Initial content: before cultivation in bile salt MRS broth
# Method: With regard to bile salt tolerance, the strains were tested in MRS broths that contained 0.3% and 0.5% of Oxgal (Sigma) bile salt by inoculating 1% of the fresh culture into the bile salt MRS broth to be studied. The strains were cultivated in the broths for 3 hours at 37° C., after which the content of live cells was determined using an agar suitable for the strain (see Table 5). All strains survived the treatment excellently.
# intestinal mucus [4] = details: prior-art description of the strain; cited from earlier work
# [5] = tested on: cultured human intestinal CaCO-2 cell lines; details: literature / prior-art description; cited from earlier work
# [6] = prior-art description of the strain; cited from earlier work
Substance,Cell content pH 2 [1],Cell content pH 3 [1],Cell content pH 4 [1],Initial content [1],adhesion to the intestinal mucus (intestinal mucus [2]),Adhesion % (+Std.) (intestinal mucus [2]),Cell content Bile salt 0.3% [3],Cell content Bile salt 0.5% [3],Initial content [3],adhesion to mucus (strain description) (intestinal mucus [4]),adhesion to epithelial cells [5],viability in low pH values and high bile acid contents [6],"viability in pH 2 ([1]; pH 2, 3 hours)"
Bifidobacterium infantis Bbi99 (DSM 13692),<10 cfu/ml,<10 cfu/ml,2 × 10^7 cfu/ml,1 × 10^7 cfu/ml,moderately,4.6 ± 2.3%,1 × 10^7 cfu/ml,1 × 10^7 cfu/ml,3 × 10^7 cfu/ml,,,,
Lactobacillus rhamnosus GG (ATCC 53103) [LGG],<10^2 cfu/ml,1 × 10^7 cfu/ml,2 × 10^7 cfu/ml,1 × 10^7 cfu/ml,excellently,26.3 ± 1.3%,2 × 10^7 cfu/ml,9 × 10^6 cfu/ml,1 × 10^7 cfu/ml,excellent,excellent; also recorded: adhere well,survives even lower pH values as well as high bile acid contents,
Lactobacillus rhamnosus LC705 (DSM 7061),<10^2 cfu/ml,4 × 10^7 cfu/ml,2 × 10^8 cfu/ml,6 × 10^7 cfu/ml,weakly,0.7 ± 0.2%,2 × 10^7 cfu/ml,1 × 10^7 cfu/ml,1 × 10^7 cfu/ml,weakly,moderately; also recorded: adhere well,good,
Propionibacterium freudenreichii ssp. shermanii JS (DSM 7067) [PJS],1 × 10^4 cfu/ml,3 × 10^7 cfu/ml,9 × 10^7 cfu/ml,1 × 10^8 cfu/ml,excellently,24.9 ± 2.2%,6 × 10^7 cfu/ml,5 × 10^7 cfu/ml,6 × 10^7 cfu/ml,,,excellent,remained viable
